From paper PMC10643673, “An immunomodulating peptide with potential to suppress tumour growth and autoimmunity” (Scientific Reports, 2023)
Where a SMILES comes first, the peptide text is derived from it. [ ]: non-standard residue; d: D form. Gly(decyl) = CCCCCCCCCC[C@H](N)C(=O)O

Experiments:
[1] = test system: Lewis lung cancer (LLC) cells; assay: Cancer cell proliferation assay (SRB); assay type: cell-based, mouse; settings: 72 h, doxorubicin 2.5 µM, positive control
Protocol: Lewis lung cancer (LLC) cells (sourced from the American Type Culture Collection) were seeded into 96-well plates (1000 cells/well) in complete cell culture medium and allowed to attach for 24 h (37 °C, 5% CO2 in air). Next, an equal volume of either cell culture medium only, or 2 × concentration of drug dissolved in cell culture medium, was added to each of 5 replicate wells (technical replicates) to expose cells to concentrations of IK14004 in the dose range from 0 to 5 µM. Cells were cultured for 72 h in the presence of either IK14004 or Doxorubicin (2.5 µM; positive control) and then the cell culture medium was removed and the attached cells fixed in ice-cold trichloroacetic acid. Fixed cells were stained with Sulforhodamine B (SRB) and then washed with 1% acetic acid to remove unbound dye. The retained dye was solubilised in 10 mM Tris base solution and the absorbance at 550 nm was measured with the baseline (media only without cells) subtracted. The data were normalised between the maximum proliferation (100%, cells with no drug) and the starting cell density (0%, cells before addition of drug). Each experiment was performed on two independent occasions (biological replicates).

human NK cells = assay: Isolated CD3−/CD56+dim NK cell cultures, flow cytometry; assay type: cell-based; settings: 24 h; all concentrations
Protocol: CD3−/CD56+^dim NK cell populations were isolated from PBMCs using immuno-magnetic separation (Stem cell, Lot no. 18A86421). CD56^+ NK cells were resuspended in RPMI-10 (RPMI-1640 supplemented with 10% heat inactivated FBS, 100 U/mL penicillin, 100 µg/mL streptomycin, 2 mM L-glutamine, and 50 µM β-mercaptoethanol) at 0.25 × 10^6/mL and plated at a density of 2.5 × 10^4 per well (100 µL) in 96-well, flat bottom culture plates. Purified NK cells were cultured together with either IK14004 or recombinant IL-2 (InVitrogen, Lot #223086-011) for […] at 37 °C, 5% CO2.
(§1) Staining was performed to determine cell viability (Flexible Viability Dye eFluorTM 780; ThermoFisher) and expression of extracellular/intracellular markers assessed using fluorescently-labelled antibodies against human proteins within different cell populations. […] After 24 h cells were collected and CD4+ and CD8+ T cells assessed for TCRα/β expression (PE; BioLegend). Phospho-STAT4 in was assessed in TCR-activated CD3 + T cell and PBMC cultures. […] Cells were then stained with fluorochrome conjugated anti-pSTAT4 antibody (eBioscience, Lot# 12-9044) and intracellular expression determined within CD8+ T cells by flow cytometry. Similarly, anti-CD3-stimulated PBMC cultures were exposed only to recombinant IL-12p70 (Peprotech, Lot #0617596) and pSTAT4 assessed within CD4+ /CD8+ T cell fractions. […]

[2] = test system: splenocytes / CD4+ T cells; assay: Splenocytes from LLC lung metastasis model, fresh or cultured overnight with/without TCR stimulation; assay type: in vivo, mouse; settings: peptide- vs vehicle-treated mice; after 24 h
Protocol: Spleens were collected and processed into a single cell suspension. Fresh splenocytes were assessed by means of flow cytometry with CD28 (BV421) and 2 × 10^5 cells per well were then cultured overnight with or without TCR stimulation (anti-CD3 alone or in combination with anti-CD28 both at 2 µg/mL, plate bound overnight in PBS at 4 °C). After overnight culture cell free supernatants were collected and assessed for IFN-γ and IL-2 by ELISA (eBioscience Kits) and set up in technical triplicate. Cells before and after stimulation were stained for flow cytometry (viability, CD4, CD28 (BV711), IL-12Rβ1 and IL-12Rβ2.

[3] = test system: exhausted CD4+ T cells derived from MBP-tracker mouse splenocytes; assay: Murine splenocyte-derived exhausted CD4+ T cell assay; assay type: cell-based; settings: highest concentration 1.25 µM
Protocol: Concept Life Sciences have established a proprietary method for assessing murine CD4+ T cell exhaustion in vitro using Tg4-Ly5.1 MBP-Tracker Mice obtained from the University of Edinburgh. Spleens were removed from transgenic B10PLxC57BL/6 mice and processed to generate a single cell suspension of splenocytes. Myelin basic protein (MBP)-Tracker splenocytes were resuspended at 3 × 10^6/mL and stimulated 72 h at approximately 37 °C, 5% CO2, with altered peptide ligand (APL)-MBP (to generate exhausted cells). Following stimulation, T cells were purified by Ficoll density gradient, and subsequently re-plated at 2 × 10^6/mL in 20 U/mL IL-2 for four days. At the end of this rest period, cells were resuspended (4 × 10^5/mL, final 2 × 10^4 per well) and restimulated using irradiated APCs (from B10PLxC57BL/6 mice, 4 × 10^6/mL, final concentration of 2 × 10^5 cells per well) plus a single dose of APL-MBP peptide together with IK14004 peptide for 72 h.
Supernatants were sampled from culture wells for assessment of IL-2 and IFN-γ by ELISA (eBioScience, Lot # 4280695 and Lot #. 4308729, respectively) and flow cytometry used for assessment of CD25 and Ki67 (eBioScience, Lot # 4276862 and Lot # 4296884, respectively). Anti-PD-1 and IgG2a antibodies were obtained from BioXCell.

[4] = test system: splenocyte-derived CD4+ T cells and NK cells; settings: mouse, in vivo
Protocol: LLC cells sourced from ATCC. The Lewis lung cancer cell line was cultured to approximately 70% confluency before cells were collected and resuspended at 5 × 10^6 /mL in sterile HBSS. […] were injected subcutaneously with 5 × 10^5 cells (100 µL) into the right flank. Mice were randomly assigned to treatment groups 5 days after tumour cell implantation such that the average tumour size was approximately equal between the two groups. Test substance IK14004 or vehicle were administered twice weekly (Monday and Thursday) via intraperitoneal (i.p.) injections, from day 5 post tumour cell implantation, until the tumours reached an average of 10 mm in diameter in the vehicle treated group. Tumours were measured three times each week using digital callipers and once the mean tumour size for the vehicle group reached 10 mm in diameter, mice were sacrificed by cervical dislocation and tumour and spleens collected. Spleens were processed into single cell suspensions and the red blood cells lysed. Fresh splenocyte suspensions were assessed by trypan blue exclusion. From fresh splenocyte suspensions, 1 × 10^6 viable cells were stained using a viability dye (Flexible Viability Dye eFluorTM 780; ThermoFisher), CD4 (BV605), NK1.1 (BV510), CD25 (AF488), IL-12Rβ1 (PE) and IL-12Rβ2 (APC) for flow cytometry.

[5] = test system: K562 erythroleukemic cells; assay: K562/PBMC co-culture cytotoxicity assay (Calcein AM release); settings: PBMCs exposed to peptide 48 h, then 4 h co-culture at 5:1 ratio; 0.08 to 1.25 µM
Protocol: Human PBMCs (2.5 × 10^5 cells per well) were cultured in 96-well round-bottom tissue culture plates for 48 h at 37 °C, 5% CO2 in the presence of IK14004 and IKD14004 peptides. After peptide exposure, PBMCs were co-cultured with Calcein AM stained K562 cells (5 × 10^4/well) at a 5:1 ratio for 4 h at 37 °C, 5% CO2. For spontaneous release control Calcein AM-K562 cells alone were treated with PBS (20 µL). For maximal release control Calcein AM-K562 cells alone were treated with lysis buffer (20 µL). After 4 h culture, 150 µL supernatant were transferred to black wall plates and intensity of Calcein green fluorescence release detected using GloMax® Discover to determine percentage of specific cytotoxicity.

[6] = test system: human PBMCs (CD4+/CD8+ T cells, NK cells); assay: Anti-CD3-stimulated human PBMC cultures, flow cytometry/ELISA; assay type: cell-based; settings: rIL-12p70 10 ng/mL; 72 h
Protocol: Preparations of peripheral blood mononuclear cells (PBMCs) and isolated T cells from buffy coat samples were performed using SepMate tubes, EasySep selection and enrichment kits, Lymphoprep, RoboSep Buffer, and EasySep magnets (STEMCELL Company). PBMCs were resuspended in RPMI-10 (RPMI-1640; ThermoFisher) supplemented with 10% heat inactivated Foetal Bovine Serum (LabTech), 100 U/mL penicillin, 100 µg/mL streptomycin (ThermoFisher), 2 mM L-glutamine (ThermoFisher), and 50 µM β-mercaptoethanol (ThermoFisher) at 1 × 10^6 cells/mL and plated at a density of 1 × 10^5 per well (100 µL) in 96-well, flat-bottom culture plates. […]
as §1, with “[…] Flow cytometry data” for “Similarly, anti-CD3-stimulated PBMC cultures”, “exported as FCS files from Attune™ NxT software” for “exposed only to recombinant IL-12p70 (Peprotech, Lot #0617596)”, “analysed using FlowJo™ software.” for “pSTAT4 assessed within CD4+ /CD8+ T cell fractions.”

## COc1cccc2c1C(=O)c1c(O)c3c(c(O)c1C2=O)C[C@@](O)(C(=O)CO)C[C@@H]3O[C@H]1C[C@H](N)[C@H](O)[C@H](C)O1 [doxorubicin]
[1]
  proliferation of the LLC cell line: total cell kill

## CCCCCCCCCC[C@H](NC(=O)[C@H](CCCCCCCCCC)NC(=O)[C@H](CCCCCCCCCC)NC(=O)[C@H](CCCCCCCCCC)NC(=O)[C@H](CCCNC(=N)N)NC(=O)[C@H](Cc1ccc(O)cc1)NC(=O)[C@H](CC(C)C)NC(=O)[C@@H]1CCCN1C(=O)[C@H](CC(N)=O)NC(=O)[C@H](CCCCN)NC(=O)[C@H](C)NC(=O)[C@H](CCCCN)NC(=O)[C@H](CO)NC(=O)[C@@H](N)CCCNC(=N)N)C(N)=O [IK14004, RSKAKNPLYR-(2)Adod-(2)Adod-(2)Adod-(2)Adod-amide] (H-RSKAKNPLYR[Gly(decyl)][Gly(decyl)][Gly(decyl)][Gly(decyl)]-NH2)
Human NK cells
  percentage of viable NK cells: remained unchanged
[2]
  viability of cultured splenocytes: no differences
[3]
  visual signs of cell death at end of splenocyte culture: no visual signs of cell death
[4]
  viability of freshly harvested splenocytes: ~100%
[5]
  significant K562 cytotoxicity: at most concentrations

B1: rIL-12p70: recombinant IL-12p70 (Peprotech), 10 ng/mL (protein, UniProt P29459 23-219; P29460 23-328, looked up)
Interleukin-12 subunit alpha: RNLPVATPDPGMFPCLHHSQNLLRAVSNMLQKARQTLEFYPCTSEEIDHEDITKDKTSTVEACLPLELTKNESCLNSRETSFITNGSCLASRKTSFMMALCLSSIYEDLKMYQVEFKTMNAKLLMDPKRQIFLDQNMLAVIDELMQALNFNSETVPQKSSLEEPDFYKTKIKLCILLHAFRIRAVTIDRVMSYLNAS
Interleukin-12 subunit beta: IWELKKDVYVVELDWYPDAPGEMVVLTCDTPEEDGITWTLDQSSEVLGSGKTLTIQVKEFGDAGQYTCHKGGEVLSHSLLLLHKKEDGIWSTDILKDQKEPKNKTFLRCEAKNYSGRFTCWWLTTISTDLTFSVKSSRGSSDPQGVTCGAATLSAERVRGDNKEYEYSVECQEDSACPAAEESLPIEVMVDAVHKLKYENYTSSFFIRDIIKPDPPKNLQLKPLKNSRQVEVSWEYPDTWSTPHSYFSLTFCVQVQGKSKREKKDRVFTDKTSATVICRKNASISVRAQDRYYSSSWSEWASVPCS
[6]
  percentage of pSTAT4-expressing CD8+ T cells: as did the percentage of pSTAT4-expressing CD8+ T cells
  proportion of pSTAT4-expressing CD4+ T cells: increased
